The source made the active and inactive calls. The rule behind the calls is not given here.
Legend:
Tubulin = assay: Inhibition of tubulin (unknown origin) polymerization measured for 1 hr by fluorescence assay in presence of GTP; type: protein-complex assay, Homo sapiens
HeLa [1] = assay: Induction of apoptosis in human HeLa cells assessed as nuclear fragmentation at 1 uM after 48 hrs by Hoechst 33342 staining-based fluorescence microscopic analysis; type: functional, cell-based
DU-145 = assay: Cytotoxicity against human DU145 cells after 72 hrs by MTT assay; type: functional, cell-based; conditions: DU-145, 72 h
Tubulin (Homo sapiens) [2] = target: T1, Tubulin (Homo sapiens) (UniProt P68371+Q9H4B7+P0DPH7+P68366+Q13509+Q71U36+P04350+Q3ZCM7+P07437+P68363+Q9BQE3+Q6PEY2+Q13885+Q9BVA1+Q9BUF5); assay: Inhibition of tubulin polymerization in human HeLa cells assessed as disruption of microtubule organization at 1 uM after 48 hrs by immunohistochemical analysis; type: cell-based
[3] = Cytotoxicity against human ME180 cells after 72 hrs by MTT assay; type: functional, cell-based; conditions: ME-180, 72 h
HeLa [4] = assay: Induction of apoptosis in human HeLa cells assessed as […] condensation at 1 uM after 48 hrs by Hoechst 33342 staining-based fluorescence microscopic analysis; type: functional, cell-based
HeLa [5] = assay: Cell cycle arrest in human HeLa cells assessed as accumulation at S phase at 0.5 uM after 24 hrs by propidium iodide staining-based FACS analysis (reference value: 4.62%); type: functional
HeLa [6] = assay: Induction of apoptosis in human HeLa cells assessed as presence of apoptotic bodies at 1 uM after 48 hrs by Hoechst 33342 staining-based fluorescence microscopic analysis; type: functional, cell-based
Tubulin (Homo sapiens) [7] = target: T1, Tubulin (Homo sapiens); assay: Inhibition of tubulin (unknown origin) polymerization at 5 uM measured for 1 hr by fluorescence assay in presence of GTP relative to control; type: protein-complex assay
HeLa [8] = assay: Induction of apoptosis in human HeLa cells assessed as DNA fragmentation at 1 to 2 uM after 48 hrs by agarose gel electrophoresis; type: functional, cell-based
HeLa [9] = assay: Cytotoxicity against human HeLa cells after 72 hrs by MTT assay; type: functional, cell-based
HeLa [10] = assay: Cell cycle arrest in human HeLa cells assessed as accumulation at G1 phase at 0.5 uM after 24 hrs by propidium iodide staining-based FACS analysis (reference value: 71.21%); type: functional
HeLa [11] = assay: Cell cycle arrest in human HeLa cells assessed as accumulation at sub-G1 phase at 0.5 uM after 24 hrs by propidium iodide staining-based FACS analysis (reference value: 3.07%); type: functional
COLO 205 = assay: Cytotoxicity against human COLO205 cells after 72 hrs by MTT assay; type: functional, cell-based; conditions: COLO 205, 72 h
HeLa [12] = assay: Cell cycle arrest in human HeLa cells assessed as accumulation at G2/M phase at 0.5 uM after 24 hrs by propidium iodide staining-based FACS analysis (reference value: 21.10%); type: functional
PC-3 = assay: Cytotoxicity against human PC3 cells after 72 hrs by MTT assay; type: functional, cell-based; conditions: PC-3, 72 h
HT-29 = assay: Cytotoxicity against human HT-29 cells after 72 hrs by MTT assay; type: functional, cell-based; conditions: HT-29, 72 h
HeLa [13] = assay: Induction of apoptosis in human HeLa cells assessed as caspase-3 activation at 2 uM after 48 hrs by Ac-DEVD fluorescence assay relative to control; type: functional
B16 = assay: Cytotoxicity against mouse B16 cells after 72 hrs by MTT assay; type: functional, cell-based; conditions: B16, 72 h

SMILES	IC50 (Tubulin) [µM]	Activity (HeLa [1])	IC50 (DU-145) [µM]	inhibition (Tubulin (Homo sapiens) [2])	IC50 [3] [µM]	Activity (HeLa [4])	Activity (HeLa [5]) [%]	Activity (HeLa [6])	inhibition (Tubulin (Homo sapiens) [7]) [%]	Activity (HeLa [8])	IC50 (HeLa [9]) [µM]	Activity (HeLa [10]) [%]	Activity (HeLa [11]) [%]	IC50 (COLO 205) [µM]	Activity (HeLa [12]) [%]	IC50 (PC-3) [µM]	IC50 (HT-29) [µM]	fold change (FC) (HeLa [13])	IC50 (B16) [µM]
COc1ccc(C(=O)c2cc(OC)c(OC)c(OC)c2)cc1NC(=O)/C=C/c1ccc(C(F)(F)F)cc1	0.7	Active	4.3	Active	0.8	Active	5.92	Active	59.4	Active	0.09	49.59	5.66	2.6	38.82	3.5	1.6	5	0.1
COc1ccc(/C=C/C(=O)Nc2cc(C(=O)c3cc(OC)c(OC)c(OC)c3)cc(OC)c2OC)cc1OC	–	–	7.8	–	6.7	–	–	–	–	–	2.7	–	–	5.7	–	5.4	2.3	–	1.3
COc1ccc(/C=C/C(=O)Nc2cc(C(=O)c3cc(OC)c(OC)c(OC)c3)cc(OC)c2OC)cc1N	–	–	12.7	–	13.9	–	–	–	–	–	15.8	–	–	10.1	–	11.1	7.7	–	12.7
COc1ccc(C(=O)c2cc(OC)c(OC)c(OC)c2)cc1N	0.6	Active	2.1	Active	0.08	Active	5.07	Active	58.3	–	0.06	53	4.56	0.2	37.36	1.1	0.05	5	0.03
COc1cccc(/C=C/C(=O)Nc2cc(C(=O)c3cc(OC)c(OC)c(OC)c3)cc(OC)c2OC)c1	–	–	12.5	–	8.6	–	–	–	–	–	6.9	–	–	10.7	–	13.3	8.7	–	6.7
C#CCOc1cccc(/C=C/C(=O)Nc2cc(C(=O)c3cc(OC)c(OC)c(OC)c3)cc(OC)c2OC)c1	–	–	13.5	–	8.4	–	–	–	–	–	7.3	–	–	11.2	–	10.1	8.1	–	5.1
COc1cccc(/C=C/C(=O)Nc2cc(C(=O)c3cc(OC)c(OC)c(OC)c3)ccc2OC)c1	–	–	6.2	–	4.3	–	–	–	–	–	3.1	–	–	5.1	–	4.7	1.9	–	3.1
COc1ccc(C(=O)c2cc(OC)c(OC)c(OC)c2)cc1NC(=O)/C=C/c1ccc(F)cc1	0.6	Active	3.9	Active	0.3	Active	7.4	Active	60.5	Active	0.06	53.02	2.96	3.4	36.62	3.2	1.8	5	0.4
COc1ccc(/C=C/C(=O)Nc2cc(C(=O)c3cc(OC)c(OC)c(OC)c3)cc(OC)c2OC)cc1	–	–	10.4	–	12.5	–	–	–	–	–	11.2	–	–	4.8	–	6.3	3.8	–	9.4
COc1ccc(C(=O)c2cc(OC)c(OC)c(OC)c2)cc1NC(=O)/C=C/c1ccc(N)cc1	–	–	13.5	–	16	–	–	–	–	–	14.7	–	–	10.3	–	15.9	5.6	–	7.9
COc1cc(/C=C/C(=O)Nc2cc(C(=O)c3cc(OC)c(OC)c(OC)c3)ccc2OC)ccc1F	–	–	12.1	–	15.5	–	–	–	–	–	13.6	–	–	11.8	–	14.1	7.7	–	16.3
COc1cccc(/C=C/C(=O)Nc2cc(OC)c(OC)c(OC)c2)c1	–	–	3.2	–	17.3	–	–	–	–	–	12.3	–	–	4.2	–	2.1	2.4	–	8.5
COc1cc(C(=O)c2cc(OC)c(OC)c(OC)c2)cc(NC(=O)/C=C/c2ccc(F)cc2)c1OC	–	–	6.7	–	1	–	–	–	–	–	0.9	–	–	3.1	–	4.1	1.8	–	0.9
COc1ccc(C(=O)c2cc(OC)c(OC)c(OC)c2)cc1NC(=O)/C=C/c1ccc(F)c(F)c1	–	–	10.2	–	8.9	–	–	–	–	–	8.1	–	–	6.02	–	8.3	4.2	–	6.5
COc1ccc(C(=O)c2cc(OC)c(OC)c(OC)c2)cc1NC(=O)/C=C/c1cc(OC)c(OC)c(OC)c1	–	–	6.3	–	2.1	–	–	–	–	–	1.5	–	–	5.2	–	3.9	3.1	–	1.2
COc1cc(C(=O)c2cc(OC)c(OC)c(OC)c2)cc(NC(=O)/C=C/c2cc(OC)c(OC)c(OC)c2)c1OC	–	–	6.6	–	3.9	–	–	–	–	–	2.5	–	–	5.3	–	4.8	3.1	–	2.5
COc1ccc(/C=C/C(=O)Nc2cc(C(=O)c3cc(OC)c(OC)c(OC)c3)ccc2OC)cc1	–	–	12.8	–	11.8	–	–	–	–	–	10.7	–	–	10.9	–	11.1	5.01	–	8.7
COc1cc(C(=O)c2cc(OC)c(OC)c(OC)c2)cc(N)c1OC	–	–	10	–	12.2	–	–	–	–	–	13.5	–	–	4.4	–	7.4	3.8	–	12.5
COc1ccc(C(=O)c2cc(OC)c(OC)c(OC)c2)cc1NC(=O)/C=C/c1ccc(OC)c(OC)c1	–	–	10.2	–	8.9	–	–	–	–	–	7.8	–	–	8.2	–	7.5	2.5	–	6.3
COc1cc(C(=O)c2cc(OC)c(OC)c(OC)c2)cc(NC(=O)/C=C/c2cc(F)c(F)c(F)c2)c1OC	–	–	7.9	–	7.1	–	–	–	–	–	5	–	–	4.3	–	7.4	3.3	–	5.2
COc1cc(C(=O)c2cc(OC)c(OC)c(OC)c2)cc(NC(=O)/C=C/c2ccc(C(F)(F)F)cc2)c1OC	–	–	5.1	–	3.6	–	–	–	–	–	3	–	–	2.5	–	4.2	1.9	–	3.3
COc1ccc(C(=O)c2cc(OC)c(OC)c(OC)c2)cc1NC(=O)/C=C/c1cccc(OC(F)(F)F)c1	–	–	10.2	–	9.2	–	–	–	–	–	7.9	–	–	7.9	–	7.7	5.2	–	6.3
C#CCOc1cccc(/C=C/C(=O)Nc2cc(C(=O)c3cc(OC)c(OC)c(OC)c3)ccc2OC)c1	–	–	15.8	–	15.3	–	–	–	–	–	14	–	–	13.4	–	13.1	7.4	–	12.2
COc1ccc(C(=O)c2cc(OC)c(OC)c(OC)c2)cc1NC(=O)/C=C/c1ccc([N+](=O)[O-])cc1	–	–	15.6	–	9.3	–	–	–	–	–	8.5	–	–	11.4	–	10.4	5.1	–	6.4

— ChEMBL document CHEMBL3259744, “Synthesis and biological evaluation of cinnamido linked benzophenone hybrids as tubulin polymerization inhibitors and apoptosis inducing agents” (Bioorg Med Chem Lett, 2014)
